{"source": "patent US20260306460A1", "about": "“COMPOSITION FOR REMOVING AND INHIBITING SENESCENT CELLS, AND USES THEREOF” (LIFECEUTIX CO., LTD., priority 2023, published 2026)", "key": {"[1]": {"conditions": "MST; described in WO2021183908A1; cited from earlier work"}, "[2]": {"system": "HMGN1 secreted from senescent cells", "assay": "HMGN1 secretion (ELISA) from doxorubicin-induced senescent cells, Example 17", "format": "cell-based, human", "conditions": "senescent untreated = 100%; 30 μM; 90 μM for LX-5211, 5433, 6530, 9105, 9118, 9321, 9602; 2.4 mM for LX-9336"}, "senescent cells": {"system": "senescent cells", "assay": "Viability of senescent cells (CellTiter-Glo), Example 17, Table 13", "conditions": "doxorubicin-induced senescent cells, 0 μM = 100", "method": "Cells induced to undergo senescence by doxorubicin treatment were treated with test compound at designated concentrations and measured using the CellTiter-Glo Luminescent Cell Viability Assay (Promega)."}, "senescent A549 cells": {"system": "senescent A549 cells", "assay": "Viability of senescent A549 cells (CellTiter-Glo), Example 18, Table 15", "conditions": "doxorubicin-induced senescent A549 cells, 0 μM = 100%", "method": "Senescence-induced cancer cells treated with doxorubicin were treated with the test compound at designated concentrations, and cell viability was measured using the CellTiter-Glo Luminescent Cell Viability Assay (Promega)."}, "[3]": {"system": "HMGN1 secreted from senescent A549 cells", "assay": "HMGN1 secretion (ELISA) from senescent A549 cells, Example 18, Table 14", "format": "cell-based, human", "conditions": "doxorubicin-senescent A549, without test compound (DMSO) = 100%; 30 μM (LX-5211, LX-5433, LX-6530, LX-6800, LX-9105, LX-9118, LX-9131, LX-9136, LX-9302, LX-9321, LX-9565, LX-9602 at 90 μM; LX-9336 at 2.4 mM)", "method": "On the other hand, in cancer cells treated with doxorubicin, where senescence was induced, the amount of HMGN1 measured under conditions where cells were not treated with the test compound was calculated as 100%, and the amount of HMGN1 was measured under conditions where the senescent cancer cells were treated with the test compound."}}}
{"molecule": "CC(C)(C)OC(=O)C(C)(C)N1C(=O)c2ccccc2C1=O", "note": "[QW-020]", "values": [{"measurement": "Kd", "setting": "[1]", "result": 2140, "unit": "nM"}]}
{"molecule": "CC(C(=O)OC(C)(C)C)N1C(=O)c2ccccc2C1=O", "note": "(stereo not shown) [QW-023]", "values": [{"measurement": "Kd", "setting": "[1]", "result": 1780, "unit": "nM"}]}
{"molecule": "CC(C)(C)OC(=O)CCCCCN1C(=O)c2ccccc2C1=O", "note": "[QW-029]", "values": [{"measurement": "Kd", "setting": "[1]", "result": 2100, "unit": "nM"}]}
{"molecule": "CC(C)(C)OC(=O)C(N1C(=O)c2ccccc2C1=O)C(C)(C)C", "note": "(stereo not shown) [QW-034]", "values": [{"measurement": "Kd", "setting": "[1]", "result": 979, "unit": "nM"}]}
{"molecule": "CCC(C)C(C(=O)OC(C)(C)C)N1C(=O)c2ccccc2C1=O", "note": "(stereo not shown) [QW-050]", "values": [{"measurement": "Kd", "setting": "[1]", "result": 2430, "unit": "nM"}]}
{"molecule": "Farletuzumab [LX-7621]", "values": [{"measurement": "HMGN1", "setting": "[2]", "result": 304, "unit": "%"}, {"measurement": "Survival (%)", "setting": "senescent cells; 1.1 μM", "result": 86.3, "unit": "%"}, {"measurement": "Survival (%)", "setting": "senescent cells; 10 μM", "result": 78.2, "unit": "%"}, {"measurement": "Survival (%)", "setting": "senescent cells; 30 μM", "result": 50.2, "unit": "%"}, {"measurement": "Survival (%)", "setting": "senescent cells; […]", "result": 82.1, "unit": "%"}, {"measurement": "Survival (%)", "setting": "senescent A549 cells; 1.1 μM", "result": 91.5, "unit": "%"}, {"measurement": "Survival (%)", "setting": "senescent A549 cells; 10 μM", "result": 69.7, "unit": "%"}, {"measurement": "Survival (%)", "setting": "senescent A549 cells; 30 μM", "result": 14.4, "unit": "%"}, {"measurement": "Survival (%)", "setting": "senescent A549 cells; […]", "result": 78.4, "unit": "%"}, {"measurement": "HMGN1", "setting": "[3]", "result": 237, "unit": "%"}]}
{"molecule": "Sulforadex [LX-7104]", "values": [{"measurement": "HMGN1", "setting": "[2]", "result": 287, "unit": "%"}, {"measurement": "Survival (%)", "setting": "senescent cells; 1.1 μM", "result": 88.5, "unit": "%"}, {"measurement": "Survival (%)", "setting": "senescent cells; 10 μM", "result": 45.7, "unit": "%"}, {"measurement": "Survival (%)", "setting": "senescent cells; 30 μM", "result": 2.8, "unit": "%"}, {"measurement": "Survival (%)", "setting": "senescent cells; […]", "result": 75.7, "unit": "%"}, {"measurement": "Survival (%)", "setting": "senescent A549 cells; 1.1 μM", "result": 103.3, "unit": "%"}, {"measurement": "Survival (%)", "setting": "senescent A549 cells; 10 μM", "result": 58.7, "unit": "%"}, {"measurement": "Survival (%)", "setting": "senescent A549 cells; 30 μM", "result": 18.1, "unit": "%"}, {"measurement": "Survival (%)", "setting": "senescent A549 cells; […]", "result": 81.2, "unit": "%"}, {"measurement": "HMGN1", "setting": "[3]", "result": 246, "unit": "%"}]}
